Data from patent publication US10611777B2, “Imidazopyridazine compounds and their use” (HUTCHISON MEDIPHARMA LIMITED, priority 2014, dated 2020).

What was measured:
Type in all cases: biochemical
PI3K-δ (p110δ/p85α) = PI3K-δ (p110δ/p85α) (Homo sapiens (Human), UniProt O00329); test: Fluorescent determination of PI3K enzyme activity (Transcreener KINASE Assay), PI3K-δ; conditions: for PI3K-δ IH%: inhibition rate at 1 μM
Description: (§1) PI3K kinases including p110α/p85α and p110γ were purchased from Invitrogen, p110δ/p85α and p110β/p85α were from Millipore.
(§2) It is a universal, homogenous, high throughput screening (HTS) technology using a far-red, competitive fluorescence polarization immunoassay based on the defection of ADP to monitor the activity of enzymes that catalyze group transfer reactions. […] The reaction mixture was added into desired wells of a 96-well plate. The plate was sealed and incubated for 80 min at room temperature. • 2) Next, 25 uL ADP detection mix was added into each well. The plate was sealed again and incubated for 60 min at room temperature. Then fluorescence polarization was measured by Tecan Infinite F500 Reader.
(§3) Data was analyzed and IC50 values were generated using the add-in software for Microsoft Excel, Xlfit™ (version 5.3).
(§4) Inhibition rates were calculated as follow: IH %=(ADP amount under 2% DMSO well−ADP amount under test compound well)/ADP amount under 2% DMSO well×100%.

PI3K-γ (p110γ) = PI3K-γ (p110γ) (Homo sapiens (Human), UniProt P48736); test: Fluorescent determination of PI3K enzyme activity (Transcreener KINASE Assay), PI3K-γ; conditions: for PI3K-γ IH%: inhibition rate at 1 μM;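 for all read-outs here: p110γ enzyme reaction for 80 min at room temperature, ADP formed measured by far-red competitive fluorescence polarization immunoassay, inhibition relative to wells with 2% DMSO only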
Sequence of PI3K-γ (p110γ) (P48736 whole entry, species assumed): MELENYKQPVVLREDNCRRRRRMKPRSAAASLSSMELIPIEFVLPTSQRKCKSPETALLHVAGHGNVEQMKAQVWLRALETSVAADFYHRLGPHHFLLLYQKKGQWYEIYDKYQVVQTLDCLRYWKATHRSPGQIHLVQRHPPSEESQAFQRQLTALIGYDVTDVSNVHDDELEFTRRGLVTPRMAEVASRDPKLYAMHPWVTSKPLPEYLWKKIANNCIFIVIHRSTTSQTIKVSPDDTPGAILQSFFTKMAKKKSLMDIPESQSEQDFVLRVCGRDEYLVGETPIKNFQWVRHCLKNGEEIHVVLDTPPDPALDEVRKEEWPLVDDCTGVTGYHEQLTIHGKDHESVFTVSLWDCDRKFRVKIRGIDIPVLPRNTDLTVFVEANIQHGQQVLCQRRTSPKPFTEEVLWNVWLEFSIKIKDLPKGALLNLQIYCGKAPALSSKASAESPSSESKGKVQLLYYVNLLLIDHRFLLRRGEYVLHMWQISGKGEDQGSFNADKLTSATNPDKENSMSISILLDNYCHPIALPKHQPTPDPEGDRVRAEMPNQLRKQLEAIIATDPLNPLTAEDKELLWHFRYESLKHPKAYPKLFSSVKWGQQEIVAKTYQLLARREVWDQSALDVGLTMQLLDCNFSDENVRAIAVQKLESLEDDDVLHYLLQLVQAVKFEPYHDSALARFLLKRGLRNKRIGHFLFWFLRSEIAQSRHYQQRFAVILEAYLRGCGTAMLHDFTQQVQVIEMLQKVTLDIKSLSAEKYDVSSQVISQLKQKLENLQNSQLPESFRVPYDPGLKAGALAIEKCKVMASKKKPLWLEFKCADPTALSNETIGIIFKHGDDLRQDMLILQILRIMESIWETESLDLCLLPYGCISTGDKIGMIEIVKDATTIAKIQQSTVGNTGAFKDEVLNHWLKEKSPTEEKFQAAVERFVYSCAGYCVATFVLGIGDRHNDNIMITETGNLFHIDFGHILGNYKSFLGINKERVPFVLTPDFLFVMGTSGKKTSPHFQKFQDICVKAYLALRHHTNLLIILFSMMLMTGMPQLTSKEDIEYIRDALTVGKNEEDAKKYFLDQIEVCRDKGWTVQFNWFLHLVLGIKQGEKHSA
Description: as §1, §2, §3, §4

PI3K-β (p110β/p85α) = PI3K-β (p110β/p85α) (Homo sapiens (Human), UniProt P42338); test: Fluorescent determination of PI3K enzyme activity (Transcreener KINASE Assay), PI3K-β; conditions: for PI3K-β IH%: inhibition rate at 1 μM;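 for all read-outs here: Far-red fluorescence polarization immunoassay detecting ADP produced by the kinase, 80 min enzyme reaction at room temperature, inhibition relative to ADP formed in 2% DMSO control wells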
Sequence of PI3K-β (p110β/p85α) (P42338 whole entry, species assumed): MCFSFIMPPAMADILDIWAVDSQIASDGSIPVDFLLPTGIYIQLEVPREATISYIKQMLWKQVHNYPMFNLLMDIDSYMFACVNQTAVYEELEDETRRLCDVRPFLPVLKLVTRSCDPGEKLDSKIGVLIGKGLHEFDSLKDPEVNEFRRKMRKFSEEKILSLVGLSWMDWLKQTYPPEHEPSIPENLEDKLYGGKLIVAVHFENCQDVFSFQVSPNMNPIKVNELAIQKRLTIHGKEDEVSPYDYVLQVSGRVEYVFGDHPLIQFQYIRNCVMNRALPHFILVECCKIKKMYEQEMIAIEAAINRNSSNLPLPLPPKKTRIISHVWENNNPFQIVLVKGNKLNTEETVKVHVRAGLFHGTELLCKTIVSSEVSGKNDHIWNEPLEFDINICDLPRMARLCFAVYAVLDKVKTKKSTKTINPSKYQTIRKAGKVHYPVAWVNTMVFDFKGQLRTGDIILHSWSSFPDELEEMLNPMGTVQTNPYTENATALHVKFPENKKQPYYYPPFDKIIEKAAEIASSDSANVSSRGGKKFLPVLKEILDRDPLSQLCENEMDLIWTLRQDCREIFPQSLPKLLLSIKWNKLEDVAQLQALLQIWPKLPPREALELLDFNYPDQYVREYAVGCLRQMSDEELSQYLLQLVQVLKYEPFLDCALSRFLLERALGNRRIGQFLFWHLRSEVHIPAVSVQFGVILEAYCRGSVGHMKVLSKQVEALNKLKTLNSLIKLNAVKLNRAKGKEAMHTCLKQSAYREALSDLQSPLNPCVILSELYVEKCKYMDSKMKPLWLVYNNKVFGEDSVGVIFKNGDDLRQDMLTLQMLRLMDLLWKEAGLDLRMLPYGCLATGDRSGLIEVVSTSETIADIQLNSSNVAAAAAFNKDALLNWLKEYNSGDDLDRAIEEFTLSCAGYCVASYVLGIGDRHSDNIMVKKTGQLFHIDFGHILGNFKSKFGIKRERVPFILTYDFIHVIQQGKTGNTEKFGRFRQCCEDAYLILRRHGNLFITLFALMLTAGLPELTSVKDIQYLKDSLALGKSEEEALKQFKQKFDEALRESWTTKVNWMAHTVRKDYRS
Sequence of PI3K-β (p110β/p85α) (P27986 whole entry partner, species assumed): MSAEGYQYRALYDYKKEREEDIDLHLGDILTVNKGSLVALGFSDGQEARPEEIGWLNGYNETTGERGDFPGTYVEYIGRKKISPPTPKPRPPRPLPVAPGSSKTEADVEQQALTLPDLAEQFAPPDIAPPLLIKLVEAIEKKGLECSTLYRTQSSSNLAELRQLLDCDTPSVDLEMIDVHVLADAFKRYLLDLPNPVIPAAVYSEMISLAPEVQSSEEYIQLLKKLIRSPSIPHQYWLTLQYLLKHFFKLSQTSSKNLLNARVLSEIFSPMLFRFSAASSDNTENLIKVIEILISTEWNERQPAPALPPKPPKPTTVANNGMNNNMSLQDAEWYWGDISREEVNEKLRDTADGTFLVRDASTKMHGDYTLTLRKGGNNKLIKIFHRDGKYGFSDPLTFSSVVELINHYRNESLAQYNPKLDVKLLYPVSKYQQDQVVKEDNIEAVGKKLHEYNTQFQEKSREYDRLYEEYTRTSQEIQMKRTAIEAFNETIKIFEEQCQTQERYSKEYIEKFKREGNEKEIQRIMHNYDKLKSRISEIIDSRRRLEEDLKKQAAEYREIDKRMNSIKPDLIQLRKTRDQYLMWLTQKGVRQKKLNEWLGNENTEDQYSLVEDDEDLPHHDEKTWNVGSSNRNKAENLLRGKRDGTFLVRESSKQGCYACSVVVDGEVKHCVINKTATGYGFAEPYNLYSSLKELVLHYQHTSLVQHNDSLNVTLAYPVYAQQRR
Description: as §1, §2, §3, §4

Sequence of PI3K-δ (p110δ/p85α) (O00329 whole entry, species assumed): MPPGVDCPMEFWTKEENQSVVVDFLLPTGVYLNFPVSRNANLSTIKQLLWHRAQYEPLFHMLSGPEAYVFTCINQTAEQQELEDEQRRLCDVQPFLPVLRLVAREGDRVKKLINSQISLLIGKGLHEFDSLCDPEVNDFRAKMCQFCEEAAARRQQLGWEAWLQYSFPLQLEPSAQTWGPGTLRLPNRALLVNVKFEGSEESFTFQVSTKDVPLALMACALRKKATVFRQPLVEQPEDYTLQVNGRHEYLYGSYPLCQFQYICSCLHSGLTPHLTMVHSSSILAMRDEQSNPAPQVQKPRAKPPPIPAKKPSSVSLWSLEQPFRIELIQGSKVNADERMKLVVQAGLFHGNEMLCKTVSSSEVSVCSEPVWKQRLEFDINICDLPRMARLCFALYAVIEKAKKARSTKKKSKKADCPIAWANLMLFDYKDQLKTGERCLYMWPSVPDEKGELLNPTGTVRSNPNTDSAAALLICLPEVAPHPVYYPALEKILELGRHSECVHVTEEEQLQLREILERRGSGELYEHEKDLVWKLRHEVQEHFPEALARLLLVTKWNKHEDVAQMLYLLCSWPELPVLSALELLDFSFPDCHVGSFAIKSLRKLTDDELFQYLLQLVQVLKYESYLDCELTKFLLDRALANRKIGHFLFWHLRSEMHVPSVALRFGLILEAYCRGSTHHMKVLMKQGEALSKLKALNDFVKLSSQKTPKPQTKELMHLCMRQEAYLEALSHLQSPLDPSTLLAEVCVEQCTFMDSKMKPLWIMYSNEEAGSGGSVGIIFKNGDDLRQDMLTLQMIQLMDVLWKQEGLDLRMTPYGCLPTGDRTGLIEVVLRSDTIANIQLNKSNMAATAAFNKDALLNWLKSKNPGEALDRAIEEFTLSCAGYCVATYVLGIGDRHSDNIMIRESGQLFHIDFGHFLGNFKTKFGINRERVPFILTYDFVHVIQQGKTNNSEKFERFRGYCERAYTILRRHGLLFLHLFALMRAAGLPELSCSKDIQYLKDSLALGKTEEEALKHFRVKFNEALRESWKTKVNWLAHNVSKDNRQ
Sequence of PI3K-δ (p110δ/p85α) (P27986 whole entry partner, species assumed): as the sequence (P27986 whole entry partner, species assumed) above

| Compound | PI3K-γ IH% (PI3K-γ (p110γ)) | PI3K-β IH% (PI3K-β (p110β/p85α)) | further results |
| --- | --- | --- | --- |
| CCC(Nc1ncnc2[nH]cnc12)c1cc2ncc(Cl)n2nc1-c1ccccc1F (single isomer, unassigned) [Compound 26] | – | – | IC50 (PI3K-δ (p110δ/p85α)): 0.839 µM |
| CCC(Nc1ncnc(N)c1C#N)c1cc2ncc(Cl)n2nc1-c1ccccn1 (centres unmarked) [Compound 28] | 18.8% | 11.1% | PI3K-δ IH% (PI3K-δ (p110δ/p85α)): 39.8% |
| CNc1ncnc(N[C@@H](C)c2cc3ncc(Cl)n3nc2-c2ccccc2)c1C#N [Compound 33, (S)-4-((1-(3-chloro-6-phenylimidazo[1,2-b]pyridazin-7-yl)ethyl)amino)-6-(methylamino)pyrimidine-5-carbonitrile] | −6.9% | 2.2% | – |
| C[C@H](Nc1ncnc(N)c1C#N)c1cc2ncc(Cl)n2nc1-c1cccc(F)c1 [Compound 15] | – | 59% | – |
| CCC(Nc1ncnc2[nH]cnc12)c1cc2ncc(Cl)n2nc1-c1ccccc1F (centres unmarked) [Compound 25] | – | 22.8% | – |
| CCC(Nc1ncnc(N)c1C#N)c1cc2ncc(Cl)n2nc1-c1cccc(F)c1 (centres unmarked) [Compound 24] | 44.5% | 46.6% | – |
| CC[C@H](Nc1ncnc(N)c1C#N)c1cc2ncc(Cl)n2nc1-c1ccccc1 [Compound 6, (S)-4-amino-6-((1-(3-chloro-6-phenylimidazo[1,2-b]pyridazin-7-yl)propyl)amino)pyrimidine-5-carbonitrile] | 4.1% | – | – |
| CCC(Nc1ncnc2[nH]cnc12)c1cc2ncc(Cl)n2nc1-c1ccccc1F (centres unmarked) [Compound 26] | 8% | −7.5% | – |
| C[C@H](Nc1ncnc(N)c1C#N)c1cc2ncc(Cl)n2nc1-c1ccc2cccnc2c1 [Compound 61] | 26.5% | 24.4% | – |
| C[C@H](Nc1ncnc2[nH]ccc12)c1cc2ncc(Cl)n2nc1-c1ccccc1 [Compound 17] | 61.2% | 15.8% | – |
| C[C@H](Nc1ncnc(N)c1C#N)c1cc2ncc(Cl)n2nc1-c1cccc(C(C)(C)O)c1 (single isomer, unassigned) [Compound 79, (chiral)-4-amino-6-((1-(3-chloro-6-(3-(2-hydroxypropan-2-yl)phenyl)imidazo[1,2-b]pyridazin-7-yl)ethyl)amino)pyrimidine-5-carbonitrile] | 56.2% | 43.8% | – |
| C[C@H](Nc1nc(O)nc(N)c1C#N)c1cc2ncc(Cl)n2nc1-c1ccccc1 [Compound 55, (S)-4-amino-6-((1-(3-chloro-6-phenylimidazo[1,2-b]pyridazin-7-yl)ethyl)amino)-2-hydroxypyrimidine-5-carbonitrile] | −4.7% | 8.5% | PI3K-δ IH% (PI3K-δ (p110δ/p85α)): 60.3% |
| C[C@@H](c1cc2ncc(Cl)n2nc1-c1ccccc1)N(C)c1ncnc(N)c1C#N [Compound 42, (S)-4-amino-6-((1-(3-chloro-6-phenylimidazo[1,2-b]pyridazin-7-yl)ethyl)(methyl)amino)pyrimidine-5-carbonitrile] | 18.2% | 7.4% | – |
| C[C@H](Nc1ncnc(N)c1C#N)c1cc2ncc(Cl)n2nc1-c1ccc2scnc2c1 [Compound 74] | 40.8% | 49.4% | – |
| CCC(Nc1ncnc(N)c1C#N)c1cc2ncc(Cl)n2nc1-c1ccccn1 (centres unmarked) [Compound 29] | 35% | – | – |
| Cc1cn2nc(-c3ccccc3)c([C@H](C)Nc3ncnc(N)c3C#N)cc2n1 [Compound 58] | 20.2% | 20.5% | – |
| C[C@H](Nc1ncnc(N)c1C#N)c1cc2ncc(Cl)n2nc1-c1ccccn1 [Compound 8, (S)-4-amino-6-((1-(3-chloro-6-(pyridin-2-yl)imidazo[1,2-b]pyridazin-7-yl)ethyl)amino)pyrimidine-5-carbonitrile] | −2.3% | 37.7% | – |
| C[C@@H](Nc1ncnc(N)c1C#N)c1cc2ncc(Cl)n2nc1-c1ccccc1 [Compound 3, (R)-4-amino-6-((1-(3-chloro-6-phenylimidazo[1,2-b]pyridazin-7-yl)ethyl)amino)pyrimidine-5-carbonitrile] | 6.9% | – | – |
| CC[C@@H](Nc1ncnc(N)c1C#N)c1cc2ncc(Cl)n2nc1-c1ccccc1 [Compound 5, (R)-4-amino-6-((1-(3-chloro-6-phenylimidazo[1,2-b]pyridazin-7-yl)propyl)amino)pyrimidine-5-carbonitrile] | – | −10.7% | PI3K-δ IH% (PI3K-δ (p110δ/p85α)): 47.3% |
| C[C@H](Nc1ncnc(N)c1C#N)c1cc2ncc(Cl)n2nc1-c1ccc(F)c(F)c1 [Compound 63] | – | 48.1% | – |
| CC(Nc1ncnc2[nH]cnc12)c1cc2ncc(Cl)n2nc1-c1ccccc1 (single isomer, unassigned) [Compound 11] | – | 55.7% | – |
| C[C@H](Nc1ncnc2[nH]cnc12)c1cc2ncc(Cl)n2nc1-c1cccc(F)c1 [Compound 16] | – | 27.5% | – |
| CCC(Nc1ncnc2[nH]cnc12)c1cc2ncc(Cl)n2nc1-c1ccccc1 (centres unmarked) [Compound 18] | – | 42% | – |

| Compound | PI3K-γ IH% (PI3K-γ (p110γ)) | PI3K-β IH% (PI3K-β (p110β/p85α)) | further results |
| --- | --- | --- | --- |
| C[C@@H](c1cc2ncc(Cl)n2nc1-c1ccccc1)n1ccc2c(N)ncnc21 [Compound 27, (S)-7-(1-(3-chloro-6-phenylimidazo[1,2-b]pyridazin-7-yl)ethyl)-7H-pyrrolo[2,3-d]pyrimidin-4-amine] | 24.9% | 9.5% | – |
| C[C@H](Nc1ncnc(N)c1-c1cnn(C)c1)c1cc2ncc(Cl)n2nc1-c1ccccc1 [Compound 57] | 30.3% | 6.3% | – |
| Cc1noc(-c2c(N)ncnc2N[C@@H](C)c2cc3ncc(Cl)n3nc2-c2ccccc2)n1 [Compound 82, (S)-N^4-(1-(3-chloro-6-phenylimidazo[1,2-b]pyridazin-7-yl)ethyl)-5-(3-methyl-1,2,4-oxadiazol-5-yl)pyrimidine-4,6-diamine] | – | 55.2% | – |
| C[C@H](Nc1nc[n+]([O-])c(N)c1C#N)c1cc2ncc(Cl)n2nc1-c1ccccc1 [Compound 51, (S)-6-amino-4-((1-(3-chloro-6-phenylimidazo[1,2-b]pyridazin-7-yl)ethyl)amino)-5-cyanopyrimidine 1-oxide] | 36.7% | −15.5% | – |
| C[C@H](Nc1ncnc(N)c1C(=O)O)c1cc2ncc(Cl)n2nc1-c1ccccc1 [Compound 52, (S)-4-amino-6-((1-(3-chloro-6-phenylimidazo[1,2-b]pyridazin-7-yl)ethyl)amino)pyrimidine-5-carboxylic acid] | −26.1% | −6.3% | – |
| Cc1nc(N)c(C#N)c(N[C@@H](C)c2cc3ncc(Cl)n3nc2-c2ccccc2)n1 [Compound 32] | – | 23.8% | – |
| CC(Nc1ncnc2[nH]cc(C#N)c12)c1cc2ncc(Cl)n2nc1-c1ccccc1 (single isomer, unassigned) [Compound 9] | −1.4% | – | – |
| C[C@H](Nc1ncnc(N)c1C#N)c1cc2ncc(Cl)n2nc1-c1cc(F)ccc1F [Compound 35] | 64.6% | 67.6% | – |
| CC[C@H](Nc1ncnc2[nH]cnc12)c1cc2ncc(Cl)n2nc1-c1cccc(F)c1 [Compound 47] | 55.2% | 32.2% | – |
| CC(Nc1ncnc(N)c1C#N)c1cc2nccn2nc1-c1ccccc1 (centres unmarked) [Compound 1, 4-amino-6-((1-(6-phenylimidazo[1,2-b]pyridazin-7-yl)ethyl)amino)pyrimidine-5-carbonitrile] | 16.1% | 28.1% | – |
| C[C@H](Nc1ncnc(N)c1C#N)c1cc2ncc(Cl)n2nc1-c1ccccc1O [Compound 69, (S)-4-amino-6-((1-(3-chloro-6-(2-hydroxyphenyl)imidazo[1,2-b]pyridazin-7-yl)ethyl)amino)pyrimidine-5-carbonitrile] | – | – | IC50 (PI3K-β (p110β/p85α)): 0.133 µM |
| C[C@H](Nc1ncnc(N)c1C(N)=O)c1cc2ncc(Cl)n2nc1-c1ccccc1 [Compound 53, (S)-4-amino-6-((1-(3-chloro-6-phenylimidazo[1,2-b]pyridazin-7-yl)ethyl)amino)pyrimidine-5-carboxamide] | 34.3% | 30.5% | – |
| CC[C@@H](Nc1ncnc(N)c1C#N)c1cc2ncc(Cl)n2nc1-c1cccc(F)c1 [Compound 43, (R)-4-amino-6-((1-(3-chloro-6-(3-fluorophenyl)imidazo[1,2-b]pyridazin-7-yl)propyl)amino)pyrimidine-5-carbonitrile] | 27.2% | 23.6% | – |
| C[C@H](Nc1ncnc(N)c1C#N)c1cc2ncc(Cl)n2nc1-c1ccc(Cl)c(F)c1 [Compound 64] | – | 44.1% | – |
| C[C@H](Nc1ncnc(N)c1-c1ccc(O)c(F)c1)c1cc2ncc(Cl)n2nc1-c1ccccc1 [Compound 38] | 54.3% | −2.2% | – |
| C[C@H](Nc1ncnc(N)c1C#N)c1cc2ncc(Cl)n2nc1-c1ccc2ccccc2c1 [Compound 71] | 32.6% | 35.2% | – |
| C[C@H](Nc1ncnc(N)c1C#N)c1cc2ncc(Cl)n2nc1-c1ccncc1 [Compound 73] | 62.8% | 60.8% | – |
| CC[C@@H](Nc1ncnc2[nH]cnc12)c1cc2ncc(Cl)n2nc1-c1cccc(F)c1 [Compound 44] | 36.0% | 18.8% | – |
| COc1ccc(-c2c(N)ncnc2N[C@@H](C)c2cc3ncc(Cl)n3nc2-c2ccccc2)cn1 [Compound 39] | 28.1% | −4.4% | – |
| C[C@@H](c1cc2ncc(Cl)n2nc1-c1ccccc1)n1cnc2c(N)ncnc21 [Compound 20, (S)-9-(1-(3-chloro-6-phenylimidazo[1,2-b]pyridazin-7-yl)ethyl)-9H-purin-6-amine] | 43.1% | 17.4% | – |
| C[C@H](Nc1ncnc(N)c1-c1cccc(F)c1)c1cc2ncc(Cl)n2nc1-c1ccccc1 [Compound 37, (S)-N^4-(1-(3-chloro-6-phenylimidazo[1,2-b]pyridazin-7-yl)ethyl)-5-(3-fluorophenyl)pyrimidine-4,6-diamine] | 27.5% | −0.4% | – |
| CCC(Nc1ncnc2[nH]cnc12)c1cc2ncc(Cl)n2nc1-c1ccccc1F (single isomer, unassigned) [Compound 25] | – | – | IC50 (PI3K-δ (p110δ/p85α)): 0.004 µM; IC50 (PI3K-γ (p110γ)): 2.59 µM |
